Where two headings read alike, the source gives them in different places.
What was measured:
BRD4-1 (BRD4 BD1) = molecular target: T1, BRD4-1 (BRD4 BD1) (Homo sapiens, UniProt O60885); assay: AlphaScreen binding assay of BRD4 biochemical activity (BD1); details: BD1, first value of cell; 10 concentrations, single well, initial 10 μM, 3-fold dilution
T1 construct: BRD4 (BD1, BD2)
Procedure: (§1) Test 1: IC50 characterization of the compounds at 10 concentrations.
(§2) The compounds were evaluated for IC50 against two BRD (BRD4-1, BRD4-2) at 10 concentrations, single well.
(§3) Buffer composition for BRD: 50 mM HEPES-HCl, pH7.5, 100 mM NaCl, 0.1% BSA, 0.05% CHAPS, and 1% DMSO.
(§4) Assay: AlphaScreen binding assay (Ex/Em=680/520-620 nm)
(§5) 2.1 4×BRD was added into wells of a reaction plate, except for control wells without BRD, in which BRD was replaced with a buffer.
(§6) 2.2 A solution of the compounds in 100% DMSO was added to the BRD mixture using Acoustic Technology (Echo550, nanoliter level). The mixture was centrifuged, shaken gently at room temperature, and pre-incubated for 30 minutes.
(§7) 2.3 4× ligand was added, and the mixture was centrifuged and shaken.
(§8) 2.4 The mixture was shaken gently and incubated at room temperature for 30 minutes.
(§9) 2.5 4× donor beads were added in the dark, and the mixture was centrifuged and shaken.
(§10) 2.6 4× acceptor beads were added in the dark, and the mixture was centrifuged and shaken gently in the dark for 60 minutes.
(§11) 2.7 The Alpha assay was carried out using Enspire (Ex/Em=680/520-620 nm)
(§12) The four-parameter fitting was performed by GraphPadPrism4 software using the following formula to obtain an IC50 fitting curve:
(§13) Y=minimum+(maximum−minimum)/(1+10^((Log IC50−X)*HillSplope))
(§14) Prism settings: 4-parameter dose-response curve (with variable slope), constrained; minimum=0, maximum=less than 120

BRD4-2 (BRD4 BD2) = molecular target: T2, BRD4-2 (BRD4 BD2) (Homo sapiens, UniProt O60885); assay: AlphaScreen binding assay of BRD4 biochemical activity (BD2); details: BD2, second value of cell; 10 concentrations, single well, initial 10 μM, 3-fold dilution
T2 construct: BRD4 (BD1, BD2)
Procedure: as §1, §2, §3, §4, §5, §6, §7, §8, §9, §10, §11, §12, §13, §14

[1] = system: Mouse colon cancer MC38 cells; assay: In vivo efficacy in transplanted tumor model of MC38 mouse colon cancer cells; details: C57BL/6 mice, 18 days of administration
Procedure: Mouse colon cancer MC38 cells (Art. No. HYC3401) were cultured in vitro in single layer under the conditions of DMEM containing 10% fetal bovine serum and 37° C. 5% CO2 incubator. Trypsin-EDTA was used for routine digestion and passage. When the cells were in exponential growth phase and the saturation was 80%-90%, the cells were collected and counted.
Cells were re-suspended in DPBS at a density of […]. 0.1 mL DPBS (containing 2×10^5 MC38 cells) was subcutaneously inoculated into the right back of each mouse. When average tumor volume reached ˜63 mm^3, mice were randomly grouped and administered according to tumor volume.
Tumor diameter was measured with vernier caliper three times a week. The calculation formula of tumor volume was as follows: V=0.5×a×b^2, wherein a and b indicated the long and short diameters of a tumor, respectively.
The anti-tumor effect of the compounds was evaluated using TGI (%) or relative tumor proliferation rate T/C (%). Relative tumor proliferation rate T/C (%)=TRTV;/CRTV×100 (TRTV: average RTV for treatment group; CRTV: average RTV for negative control group). According to the results of tumor measurement, relative tumor volume (RTV) was calculated using the formula: RTV=Vt/V0, wherein V0 is the tumor volume measured when grouped and administered (i.e., D0), Vt is the tumor volume at a certain measurement, and the data of TRTV and CRTV on the same day were used.
TGI (%) reflects the rate of tumor growth inhibition. TGI (%)=[(1−(Average tumor volume at the end of administration for a treatment group−Average tumor volume at the beginning of administration for the treatment group))/(Average tumor volume at the end of treatment for a vehicle control group-Average tumor volume at the beginning of treatment for the vehicle control group)]×100.
Statistical analysis was performed using SPSS software based on the relative tumor volume and tumor weight at the end of the test. T-test was used for comparison between two groups and one-way ANOVA was used for comparison among three or more groups. If variance was not neat (significant difference was found in F value), Games-Howell method was used for test. P<0.05 was considered a significant difference.

[2] = Pharmacokinetic study in male CD-1 mice, LC/MS/MS of plasma; format: in vivo; details: mouse; for Vd: read-out: Apparent volume of distribution Vdss; for AUC(0-inf): read-out: Area under curve (0-inf) AUC0-inf; for AUC(0-t): read-out: Area under curve (0-t) AUC0-last; for clearance: read-out: Clearance rate Cl; for half-life: read-out: Half life period T½ (converted); for Cmax: read-out: Drug concentration in blood Cmax; for Tmax: read-out: Peak arrival time Tmax; for bioavailability: read-out: bioavailability F
Procedure: 1.1 Male CD-1 mice were used as test animals, and the LC/MS/MS method was used to determine the drug concentration in plasma of mice at different times after intravenous and intragastric administration of the test compounds. The pharmacokinetic behavior of the compounds of the present disclosure in mice was studied, and the pharmacokinetic characteristics of the compounds of the present disclosure were evaluated.
2.2 Assay animals: Eight healthy adult male CD-1 mice, which were divided into four groups (two for each group) according to the principle of similar body weight. The animals were purchased from Shanghai Sippe-Bk Lab Animal Co., Ltd., with animal production license No. of SCXK (Shanghai) 2018-0006.
A proper amount of samples were weighed, to which a solvent was added. The mixture was stirred with ultrasound to a clear state for intravenous administration.
A proper amount of samples were weighed, to which a solvent was added. The mixture was stirred with ultrasound to a clear state for intragastric administration.
Eight male CD-1 mice were divided into four groups. After one-night fasting, two groups were administered intravenously, and the remaining two groups were administered intragastrically.
After intravenous administration of the test compounds to male CD-1 mice, […] of blood was collected at 0.0833, 0.25, 0.5, 1, 2, 4, 8, and 24 hours, and placed in commercial tubes containing EDTA-K2. After intragastric administration of the test compounds, […] of blood was collected at 0.25, 0.5, 1, 2, 4, 6, 8, and 24 hours, and placed in commercial tubes containing EDTA-K2. The tubes were centrifuged at 3000 g for 15 minutes to separate plasma and stored at −60° C. Animals were fed 2 hours after the administration.
The LC/MS/MS method was used to determine the content of the test compounds in the plasma of mice after intravenous and intragastric administration. The linear range of the method was 2.00-6000 nmol/L; The plasma samples were analyzed after protein precipitation with acetonitrile.

[3] = system: PAN02 mouse pancreatic cancer cell line; assay: In vivo efficacy in PAN02 tumor model; details: C57BL/6 mice, 30 mg/kg intragastrically, day 32
Procedure: The anti-tumor effect of the test compound was investigated on an in vivo tumor model of mouse pancreatic cancer PAN02.
Female C57BL/6 mice were subcutaneously inoculated with PAN02 mouse pancreatic cancer cell line, grouped according to body weight and tumor volume on the 8th day after inoculation, and administered as described below.
(§15) Group 1 (control group): Vehicle control was administered intragastrically at a dose of 0.1 mL/10 g body weight twice a day.
(§16) Group 2: Compound 4 dissolved in (5% DMSO+40% PEG 400+10% Solutol+45% DDH2O) was administered intragastrically at a dose of 30 mg/kg body weight.
(§17) During the assay, the body weight and tumor volume of mice were measured three times a week, and the tumor volume was calculated according to the formula of length×width^2/2. The tumor proliferation rate and tumor inhibition rate were calculated according to the formula: tumor proliferation rate=tumor volume of treatment group/tumor volume of control group×100%; tumor inhibition rate=(tumor volume of control group−tumor volume of treatment group)/tumor volume of control group.
(§18) Student's t-test was used for statistical analysis between groups, and p<0.05 indicated significant difference.

[4] = system: EMT-6 mouse breast cancer cell line; assay: Anti-tumor activity in EMT-6 in vivo tumor model; details: EMT-6 model, BALB/C mice, 30 mg/kg intragastrically
Procedure: The anti-tumor effect of the test compound was investigated on an in vivo tumor model of mouse breast cancer EMT-6.
Female BALB/C mice were subcutaneously inoculated with an EMT-6 mouse breast cancer cell line, grouped according to body weight and tumor volume on the 8th day after inoculation, and administered as described below.
as §15, §16
as §17, with “group-tumor” for “group−tumor”
as §18

Cc1sc2c(c1C)C(c1ccc(Cl)cc1)=N[C@@H](CC(=O)Nc1ccc3c(c1)CO/C3=N\OC(C)C)c1nnc(C)n1-2 [Compound 8] gave an IC50 (BRD4-1 (BRD4 BD1)) of 85.7 nM and an IC50 (BRD4-2 (BRD4 BD2)) of 15 nM.

Cc1sc2c(c1C)C(c1ccc(Cl)cc1)=N[C@@H](CC(=O)Nc1ccc3c(c1)Cn1ccnc1-3)c1nnc(C)n1-2 [Compound 12] gave an IC50 (BRD4-1 (BRD4 BD1)) of 18.1 nM and an IC50 (BRD4-2 (BRD4 BD2)) of 1.99 nM.

Cc1sc2c(c1C)C(c1ccc(Cl)cc1)=N[C@@H](CC(=O)Nc1ccc3c(c1)CO/C3=N\OC(F)F)c1nnc(C)n1-2 [Compound 11] gave a TGI ([1]; 20 mpk p.o. BID) of 54.16%, a TGI ([1]; 50 mpk p.o. BID) of 84.11% and an IC50 (BRD4-1 (BRD4 BD1)) of 72.2 nM. It also gave a Vd ([2]; intravenous, 1 mg/kg) of 2.21 L/kg, an AUC(0-inf) ([2]; intravenous, 1 mg/kg) of 2.44 µM·h and an AUC(0-t) ([2]; intravenous, 1 mg/kg) of 2.26 µM·h. For the same compound, the clearance ([2]; intravenous, 1 mg/kg) was 11.5 mL/min/kg, the half-life ([2]; intravenous, 1 mg/kg) was 2.16 h and the AUC(0-t) ([2]; po, intragastric, 2 mg/kg) was 1.31 µM·h. It also gave a Cmax ([2]; po, intragastric, 2 mg/kg) of 115 nM, a Tmax ([2]; po, intragastric, 2 mg/kg) of 7 h and a bioavailability ([2]; po, intragastric, 2 mg/kg) of 29%. For the same compound, the IC50 (BRD4-2 (BRD4 BD2)) was 3.92 nM.

For Cc1sc2c(c1C)C(c1ccc(Cl)cc1)=N[C@@H](CC(=O)Nc1ccc3c(c1)CC1CON=C31)c1nnc(C)n1-2 (some centres unmarked) [Compound 3], the IC50 (BRD4-1 (BRD4 BD1)) was 27 nM and the IC50 (BRD4-2 (BRD4 BD2)) was 4.45 nM.

Compound COCCO/N=C1\OCc2cc(NC(=O)C[C@@H]3N=C(c4ccc(Cl)cc4)c4c(sc(C)c4C)-n4c(C)nnc43)ccc21 [Compound 10] has an IC50 (BRD4-1 (BRD4 BD1)) of 27 nM and an IC50 (BRD4-2 (BRD4 BD2)) of 3.56 nM.

For CO/N=C1\OCc2cc(NC(=O)C[C@@H]3N=C(c4ccc(Cl)cc4)c4c(sc(C)c4C)-n4c(C)nnc43)ccc21 [Compound 4], the TGI ([1]; 20 mpk p.o. BID) was 85.90%, the TGI ([1]; 50 mpk p.o. BID) was 97.66% and the IC50 (BRD4-1 (BRD4 BD1)) was 28 nM. It also gave a Vd ([2]; intravenous, 1 mg/kg) of 1.84 L/kg, an AUC(0-inf) ([2]; intravenous, 1 mg/kg) of 2.91 µM·h and an AUC(0-t) ([2]; intravenous, 1 mg/kg) of 2.71 µM·h. For the same compound, the clearance ([2]; intravenous, 1 mg/kg) was 10.2 mL/min/kg, the half-life ([2]; intravenous, 1 mg/kg) was 2.05 h and the AUC(0-t) ([2]; po, intragastric, 2 mg/kg) was 1.61 µM·h. For the same compound, the Cmax ([2]; po, intragastric, 2 mg/kg) was 262 nM, the Tmax ([2]; po, intragastric, 2 mg/kg) was 4 h and the bioavailability ([2]; po, intragastric, 2 mg/kg) was 29.6%. For the same compound, the tumor proliferation rate [3] was 37.61%, the IC50 (BRD4-2 (BRD4 BD2)) was 6.6 nM and the tumor proliferation rate ([4]; Day 19) was 23.92%. The tumor proliferation rate ([4]; end of the assay) was 36.79%.

Compound CCO/N=C1\OCc2cc(NC(=O)C[C@@H]3N=C(c4ccc(Cl)cc4)c4c(sc(C)c4C)-n4c(C)nnc43)ccc21 [Compound 9] has an IC50 (BRD4-1 (BRD4 BD1)) of 43.6 nM and an IC50 (BRD4-2 (BRD4 BD2)) of 7 nM.

Compound Cc1sc2c(c1C)C(c1ccc(Cl)cc1)=N[C@@H](CC(=O)Nc1ccc3c(c1)CO/C3=N\O)c1nnc(C)n1-2 [Compound 1] has an IC50 (BRD4-1 (BRD4 BD1)) of 48.8 nM and an IC50 (BRD4-2 (BRD4 BD2)) of 7.4 nM.

Cc1sc2c(c1C)C(c1ccc(Cl)cc1)=N[C@@H](CC(=O)Nc1ccc3c(c1)CO/C3=N\C#N)c1nnc(C)n1-2 [Compound 2] gave an IC50 (BRD4-1 (BRD4 BD1)) of 48.2 nM and an IC50 (BRD4-2 (BRD4 BD2)) of 6.23 nM.

Compound Cc1sc2c(c1C)C(c1ccc(Cl)cc1)=N[C@@H](CC(=O)Nc1ccc3c(c1)CO/C3=N\C1COC1)c1nnc(C)n1-2 [Compound 7] has an IC50 (BRD4-1 (BRD4 BD1)) of 28.7 nM and an IC50 (BRD4-2 (BRD4 BD2)) of 6.06 nM.

Compound Cc1sc2c(c1C)C(c1ccc(Cl)cc1)=N[C@@H](CC(=O)Nc1ccc3c(c1)CO/C3=N\N(C)C)c1nnc(C)n1-2 [Compound 13] has an IC50 (BRD4-1 (BRD4 BD1)) of 13.1 nM and an IC50 (BRD4-2 (BRD4 BD2)) of 2.26 nM.
